From patent US20250277001A1, “PEPTIDE DERIVATIVES AND RELATED USES AS OREXIN AGONISTS” (CENTESSA PHARMACEUTICALS (UK) LIMITED, priority 2022, published 2025)
Like-named read-outs stand apart in the source and are kept apart here. Where a SMILES comes first, the peptide text is derived from it. Where no end group is shown, it is not given here. [ ]: non-standard residue; d: D form. The star is where a group is joined. Malonyl(2,2-Me2,histaminyl) = CC(C)(C(=O)NCCc1cnc[nH]1)C(=O)*; hArg(Et2) = CCN=C(NCC)NCCCC[C@H](N)C(=O)O; Gly(NCH2CH2Ph) = O=C(O)CNCCc1ccccc1; Hyp = O=C(O)[C@@H]1C[C@@H](O)CN1; hArg = N=C(N)NCCCC[C@H](N)C(=O)O; NMeN = CN[C@@H](CC(N)=O)C(=O)O; Aoc(2) = CCCCCC[C@H](N)C(=O)O; Phg = N[C@H](C(=O)O)c1ccccc1; Nle = CCCC[C@H](N)C(=O)O

Columns and labels:
[1] = target: T1, human orexin type 1 receptor (hOX1R) (Homo sapiens, UniProt O43613); experiment: Measurement of orexin type 1 receptor agonist activity (CHO cells, FLIPR TETRA intracellular Ca2+); format: cell-based
T1 construct: expressed in transfected cells
T1 sequence (O43613 1-425): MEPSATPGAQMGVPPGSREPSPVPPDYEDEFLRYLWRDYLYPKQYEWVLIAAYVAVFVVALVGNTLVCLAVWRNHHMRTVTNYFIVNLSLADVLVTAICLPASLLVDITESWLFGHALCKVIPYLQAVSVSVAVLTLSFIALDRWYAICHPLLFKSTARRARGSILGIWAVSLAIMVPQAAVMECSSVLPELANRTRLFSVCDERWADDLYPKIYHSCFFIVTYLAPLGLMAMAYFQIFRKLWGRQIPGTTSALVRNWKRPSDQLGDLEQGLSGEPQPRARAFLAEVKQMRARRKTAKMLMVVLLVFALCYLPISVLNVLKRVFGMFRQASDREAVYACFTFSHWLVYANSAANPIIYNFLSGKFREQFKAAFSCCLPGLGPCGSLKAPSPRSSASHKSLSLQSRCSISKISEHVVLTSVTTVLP
Excerpt: (§1) In some embodiments, the assay uses cells stably expressing either human orexin type 2 or human orexin type 1 receptor. In some embodiments, the cells are obtained by inserting the Orexin receptor cDNA into pcDNA3.1(+) plasmid vector, identifying clones by G418 drug resistance selection, and/or growing a single clone for OX2R-CHO and OX1R-CHO in bulk. In some embodiments, the assay is detected using Fluorescent Imaging Plate Reader TETRA (FLIPR TETRA: manufactured by Molecular Devices). In some embodiments, the agonist activity of the test peptide is calculated assuming that the fluorescence value of the well containing only the dilution buffer is 0% and the fluorescence value of the well containing 10 nM human orexin A (Tocris) buffer is 100%.
(§2) Stable cell line generation. Obtainment of cells stably expressing either human orexin type 2 or human orexin type 1 receptor: to obtain a stable cell line the Orexin receptor cDNA was inserted into pcDNA3.1(+) plasmid vector and clones identified by G418 drug resistance selection. […] A single clone for OX2R-CHO and OX1R-CHO were grown in bulk and frozen to generate a cell bank for routine screening.
(§3) Measurement of orexin type 1 receptor agonist activity. Chinese hamster ovary (CHO) cells expressing human orexin type 1 receptor (hOX1R) were seeded in each well of 384 well black clear bottom plates (BD Flacon) at 10,000 cells per well and cultured for 24 h in an Ham's F12 (Gibco) medium containing 10% fetal calf serum (Sigma Aldrich) under the conditions of 37° C., 5% CO2. After removal of the medium, 50 μL of assay buffer 1 (0.1% bovine serum albumin (Sigma Aldrich), 20 mM HEPES (Molecular Dimensions), […] probenecid (Sigma Aldrich), 1× Calcium 5 dye (Molecular Devices) in Hank's balanced salt solution (Invitrogen)) was added, and the cells were incubated for 60 min under the conditions of 37° C., 5% CO2. A test peptide was dissolved in dimethyl sulfoxide (Sigma Aldrich) to 1 mM, and then diluted with assay buffer 2 (20 mM HEPES, Hank's balanced salt solution, 0.1% bovine serum albumin). For the reaction, a test peptide solution (10 μl) was added using Fluorescent Imaging Plate Reader TETRA (FLIPR TETRA: manufactured by Molecular Devices), a fluorescence value (excitation wavelength 488 nm, measurement wavelength 570 nm) of each well was measured every one second for 2 min, and the agonist activity was determined using the area of the fluorescence value as an indicator of intracellular Ca^2+ concentration. The agonist activity of the test peptide was calculated assuming that the fluorescence value of the well added with only the dilution buffer was 0% and the fluorescence value of the well added with 10 nM human orexin A (Tocris) buffer was 100%. As used herein, Emax indicates the value at 1 μM concentration when orexin A is converted to a full agonist (maximum value of agonist activity: 100%).

[2] = target: T2, human orexin type 2 receptor (hOX2R) (Homo sapiens, UniProt O43614); experiment: Measurement of orexin type 2 receptor agonist activity (CHO cells, FLIPR TETRA intracellular Ca2+); format: cell-based
T2 construct: expressed in transfected cells
T2 sequence (O43614 1-444): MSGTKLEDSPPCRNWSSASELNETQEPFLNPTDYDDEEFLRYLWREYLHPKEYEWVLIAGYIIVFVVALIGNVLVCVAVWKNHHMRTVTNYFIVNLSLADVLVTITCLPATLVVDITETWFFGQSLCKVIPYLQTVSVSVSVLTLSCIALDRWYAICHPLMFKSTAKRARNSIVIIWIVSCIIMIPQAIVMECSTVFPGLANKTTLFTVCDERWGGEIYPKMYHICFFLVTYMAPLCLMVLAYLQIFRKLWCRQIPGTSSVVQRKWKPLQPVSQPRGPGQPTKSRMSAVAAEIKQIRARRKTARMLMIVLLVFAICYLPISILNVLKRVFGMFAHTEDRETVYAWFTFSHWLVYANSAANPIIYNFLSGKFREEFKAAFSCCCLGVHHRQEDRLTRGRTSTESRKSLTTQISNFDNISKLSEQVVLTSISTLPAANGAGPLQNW
Excerpt: as §1, §2
as §3, with “type 2” for “type 1”, “receptor (hOX2R)” for “receptor (hOX1R) were”

[3] = test system: mice; settings: cited from earlier work
[4] = intracerebroventricular (ICV), orexin-neuron ablated mice

Molecule | EC50 [1] | EC50 [2] | also measured
CCCCCC[C@H](NC(=O)[C@@H](NC(=O)[C@H](CC(C)C)NC(=O)[C@@H](NC(=O)CNC(=O)[C@@H](NC(=O)[C@H](C)NC(=O)[C@@H]1C[C@@H](O)CN1C(=O)[C@H](CC(N)=O)NC(=O)CN(CCc1ccccc1)C(=O)[C@H](CCCNC(=N)N)NC(=O)[C@H](CCCNC(=N)N)NC(=O)[C@@H]1CCCN1C(=O)[C@H](CCCCNC(=N)N)NC(=O)[C@@H](CCC(N)=O)NC(=O)C(C)(C)C(=O)NCCc1cnc[nH]1)c1ccccc1)[C@@H](C)CC)[C@@H](C)O)C(N)=O [compound 20] ({Malonyl(2,2-Me2,histaminyl)}-[dQ][hArg]PRR[Gly(NCH2CH2Ph)]N[Hyp]A[Phg]GILT[Aoc(2)]-NH2) | 1 to 10 nM | < 0.1 nM | –
CCCCCC[C@H](NC(=O)[C@@H](NC(=O)[C@H](CC(C)C)NC(=O)[C@@H](NC(=O)CNC(=O)[C@@H](NC(=O)[C@H](C)NC(=O)[C@@H]1C[C@@H](O)CN1C(=O)[C@H](CC(N)=O)N(C)C(=O)CN(CCc1ccccc1)C(=O)[C@H](CCCNC(=N)N)NC(=O)[C@@H]1CCCN1C(=O)[C@H](CCCCNC(=N)N)NC(=O)[C@H](CCC(N)=O)NC(=O)C(C)(C)C(=O)NCCc1cnc[nH]1)c1ccccc1)[C@@H](C)CC)[C@@H](C)O)C(N)=O [compound 3] ({Malonyl(2,2-Me2,histaminyl)}-Q[hArg]PR[Gly(NCH2CH2Ph)][NMeN][Hyp]A[Phg]GILT[Aoc(2)]-NH2) | > 10 nM | < 0.1 nM | –
CCCCCC[C@H](NC(=O)[C@@H](NC(=O)[C@H](CC(C)C)NC(=O)[C@@H](NC(=O)CNC(=O)[C@@H](NC(=O)[C@H](C)NC(=O)[C@@H]1C[C@@H](O)CN1C(=O)[C@H](CC(N)=O)N(C)C(=O)CN(CCc1ccccc1)C(=O)[C@H](CCCNC(=N)N)NC(=O)[C@H]1CCCN1C(=O)[C@H](CCCCNC(=N)N)NC(=O)[C@H](CCC(N)=O)NC(=O)C(C)(C)C(=O)NCCc1cnc[nH]1)c1ccccc1)[C@@H](C)CC)[C@@H](C)O)C(N)=O [compound 6] ({Malonyl(2,2-Me2,histaminyl)}-Q[hArg][dP]R[Gly(NCH2CH2Ph)][NMeN][Hyp]A[Phg]GILT[Aoc(2)]-NH2) | > 10 nM | < 0.1 nM | –
CCCCCC[C@H](NC(=O)[C@@H](NC(=O)[C@H](CC(C)C)NC(=O)[C@@H](NC(=O)CNC(=O)[C@@H](NC(=O)[C@H](C)NC(=O)[C@H](Cc1c[nH]cn1)NC(=O)[C@H](CC(N)=O)NC(=O)CN(CCc1ccccc1)C(=O)[C@H](CCCCNC(=NCC)NCC)NC(=O)[C@@H]1CCCN1C(=O)[C@H](CCCCNC(=N)N)NC(=O)[C@H](CCC(N)=O)NC(=O)C(C)(C)C(=O)NCCc1cnc[nH]1)c1ccccc1)[C@@H](C)CC)[C@@H](C)O)C(N)=O [compound 1] ({Malonyl(2,2-Me2,histaminyl)}-Q[hArg]P[hArg(Et2)][Gly(NCH2CH2Ph)]NHA[Phg]GILT[Aoc(2)]-NH2) | > 10 nM | < 0.1 nM | –
COc1ccc(-c2cccc(C(=O)N(C)C)c2)cc1S(=O)(=O)Nc1cccc(NCCNC(=O)c2ccccc2N(C)C)c1 [YNT-185] | – | – | sleep-onset REM periods and cataplexy-like events ([3]; NT1 mouse model): decreases; wakefulness ([3]; intraperitoneally or ICV, wild type (WT) and orexin ligand-deficient mice): modestly increases
CCCCCC[C@H](NC(=O)[C@@H](NC(=O)[C@H](CC(C)C)NC(=O)[C@@H](NC(=O)CNC(=O)[C@@H](NC(=O)[C@H](C)NC(=O)[C@@H]1C[C@@H](O)CN1C(=O)[C@H](CC(N)=O)N(C)C(=O)CN(CCc1ccccc1)C(=O)[C@H](CCCNC(=N)N)NC(=O)[C@H](CCCNC(=N)N)NC(=O)[C@@H]1CCCN1C(=O)[C@H](CCCCNC(=N)N)NC(=O)[C@H](CCC(N)=O)NC(=O)C(C)(C)C(=O)NCCc1cnc[nH]1)c1ccccc1)[C@@H](C)CC)[C@@H](C)O)C(N)=O [compound 17] ({Malonyl(2,2-Me2,histaminyl)}-Q[hArg]PRR[Gly(NCH2CH2Ph)][NMeN][Hyp]A[Phg]GILT[Aoc(2)]-NH2) | > 10 nM | < 0.1 nM | –
CCCCCC[C@H](NC(=O)[C@@H](NC(=O)[C@H](CC(C)C)NC(=O)[C@@H](NC(=O)CNC(=O)[C@@H](NC(=O)[C@H](C)NC(=O)[C@@H]1C[C@@H](O)CN1C(=O)[C@H](CC(N)=O)N(C)C(=O)CN(CCc1ccccc1)C(=O)[C@H](CCCNC(=N)N)NC(=O)[C@@H]1CCCN1C(=O)[C@H](CCCCNC(=N)N)NC(=O)[C@@H](CCC(N)=O)NC(=O)C(C)(C)C(=O)NCCc1cnc[nH]1)c1ccccc1)[C@@H](C)CC)[C@@H](C)O)C(N)=O [compound 4] ({Malonyl(2,2-Me2,histaminyl)}-[dQ][hArg]PR[Gly(NCH2CH2Ph)][NMeN][Hyp]A[Phg]GILT[Aoc(2)]-NH2) | > 10 nM | < 0.1 nM | –
orexin A (QPLPDCCRQKTCSCRLYELLHGAGNHAAGILTL; ends and bridges not checked; cysteine pairing not given here; UniProt O43612 34-66, looked up) [orexin neuropeptide, also known as hypocretin-1] | – | – | cataplexy-like behavior [3, 4]: decreases; time spent awake [3, 4]: increase
CCCC[C@H](NC(=O)[C@@H](NC(=O)[C@H](CC(C)C)NC(=O)[C@@H](NC(=O)CNC(=O)[C@H](C)NC(=O)[C@H](C)NC(=O)[C@H](Cc1c[nH]cn1)NC(=O)[C@H](CC(N)=O)NC(=O)CNC(=O)[C@H](CO)NC(=O)[C@H](C)NC(=O)[C@H](Cc1c[nH]c2ccccc12)NC(=O)C(C)(C)C(=O)NCCc1cnc[nH]1)[C@@H](C)CC)[C@@H](C)O)C(N)=O [SEQ ID NO:7, CAP-TRP-ALA-SER-GLY-ASN-HIS-ALA-ALA-GLY-ILE-LEU-THR-NLE-NH2] ({Malonyl(2,2-Me2,histaminyl)}-WASGNHAAGILT[Nle]-NH2) | – | – | EC50 ([1]; 13 amino acid sequences, Example 4, read-out: OX1 pEC50 (converted)): > 316 nM; EC50 ([2]; 13 amino acid sequences, Example 4, read-out: OX2 pEC50 (converted)): > 1.58 nM
